Test results published in US20140329863A1 (priority 2011, published 2014).
Read-outs that look alike come from different tables or passages of the source.

What was measured:
[1] = Hepatic microsome stability, mouse; assay type: in vitro ADME; details: mouse liver microsomes
Method: (§1) Hepatic microsomal stability assays were performed in two stages. In the first set of experiments, aliquots of the DMSO solute stocks were diluted into ACN and then into assay buffer (PBS, pH 7.4, ±0.05% PS80). Final experimental solute concentrations were 1 μM (0.6% ACN, 0.01% DMSO). Commercially available mouse, rat, or human hepatic microsomes (˜0.5 mg/ml final concentration), and NADPH (1 mM) or PBS were added. The resulting mixture was incubated at 37° C., and aliquots removed at 0, 1, 10, 30 and 60 min, then quenched with ACN containing 2 μM carbamazepine (internal standard). […] Duplicate incubations were run for each time-point. The percentage of solute remaining at the end of the incubation was used to determine solute half-life.
(§2) These were diluted 500-fold into 1 mL of microsomal incubation mixture to yield a final concentration of 1 μM. The incubation mixture was composed of 100 mM phosphate buffer, pH 7.4, and NADPH regenerating system (BD Biosciences NADPH Regenerating System Solutions A & B). This mixture was preincubated at 37° C. for 5 min in an Eppendorf Thermo mixer, and the reaction initiated by addition of 0.5 mg (25 μl of a 20 mg/mL solution) of liver microsomes. Aliquots (100 μl) were withdrawn at 0, 5, 15, 30, and 60 min, and added to 100 μl ACN containing internal standard. […] The percentage of solute remaining at the end of the incubation was used to determine species-specific values of scaled intrinsic clearance, hepatic clearance, and predicted hepatic extraction based upon the calculations below {Obach, 1999 #9097}.
(§3) for which mg microsomal protein/gm liver was 45 for all species, and gm liver/kg body weight were 32 for dog, 88 for mouse, 40 for rat and 25 for human.
(§4) Clh=(Q*Clint,scaled)/(Q+Clint,scaled)
(§5) for which Q was hepatic blood flow; values of 90 ml/min/kg for mouse, 66 ml/min/kg for rat, and 21 ml/min/kg for human were used.
(§6) for which ER estimates the amount of compound cleared during a single pass through the liver (Low ER<0.3, moderate ER 0.3-0.7, high ER>0.7).

[2] = Hepatic microsome stability, human; assay type: in vitro ADME; details: human liver microsomes
Method: as §1, §2, §3, §4, §5, §6

[3] = tested on: PrP^Sc in dividing ScN2a-cl3 cells; assay type: cell-based, mouse
[4] = tested on: PrP^Sc in dividing ScN2a-c13 cells; details: read-out: EC50 (ELISA), reduction of PrP^Sc load; dividing ScN2a-c13 cells
[5] = […]
in vitro = details: dog, MDCK-MDR1
P-gp (MDR1) = experiment: in vitro; details: dog, MDCK-MDR1
[6] = Hepatic microsomal stability, rat; details: for half-life at 1 μM: Sprague-Dawley, pH 7.4
[7] = Hepatic microsomal stability, mouse; details: for half-life at 1 μM: CD-1, mouse, pH 7.4
[8] = Hepatic microsomal stability, human; details: for half-life at 1 μM: pH 7.4
[9] = Multidose (three-day) pharmacokinetics in liquid diet in FVB mice; details: for concentration at 3 days: FVB, mouse, in vivo
[10] = Table 29, 2-AMT analogs tested for potency, usually n = 3 or more
[11] = 80 mg/kg, Brain Concentration (Css), three-day dosing in liquid diet, brain
[12] = 130 mg/kg, Brain Concentration (Css), three-day dosing in liquid diet, brain
[13] = 210 mg/kg, Brain Concentration (Css), three-day dosing in liquid diet, brain

Row | SMILES | hepatic extraction ratio (ER) [1] | hepatic extraction ratio (ER) [2] | EC50 ([3]; AMT analogs tested for potency) | EC50 [3, 10] | hepatic extraction ratio (ER) [5] | Papp A→B (in vitro) | Papp B→A (in vitro) | efflux ratio (P-gp (MDR1)) | half-life at 1 μM ([6]; rat) | % remaining after a 60-min incubation, Rat [6] | Hepatic Extraction Ratio Rat ([6]; rat) | Hepatic Extraction Ratio Rat ([6]; rat microsomes) | half-life at 1 μM ([7]; liver microsomes) | half-life at 1 μM ([7]; mouse liver microsomes) | Hepatic Extraction Ratio Mouse ([7]; mouse) | % remaining after a 60-min incubation, Mouse ([7]; mouse liver microsomes) | Hepatic Extraction Ratio Mouse ([7]; mouse microsomes) | Hepatic Extraction Ratio Human ([8]; human) | % remaining after a 60-min incubation, Human ([8]; human liver microsomes) | Hepatic Extraction Ratio Human ([8]; human microsomes) | further results
1 | Cc1ccnc(Nc2nc(-c3ccncc3)cs2)c1 [IND52, (4-Methyl-pyridin-2-yl)-(4-pyridin-4-yl-thiazol-2-yl)-amine] | higher | higher | 4.95 µM | 4.95 µM | higher | 36.2 ×10⁻⁶ cm/s | 48.7 ×10⁻⁶ cm/s | 1.3 | 16 min | 8% | 0.8 | 0.8 | 6 min | 6 min | 0.95 | 0% | 0.95 | 0.8 | 30% | 0.8 | EC50 [4]: 4.95 µM; half-life at 1 μM ([8]; human, human liver microsomes): 36 min; half-life at 1 μM ([8]; human, liver microsomes): 36 min; concentration at 3 days ([9]; 40 mg/kg, Plasma Concentration (Css), three-day dosing in liquid diet, plasma): 10 ± 10 nM; concentration at 3 days [9, 11]: 760 ± 1090 nM; concentration at 3 days ([9]; 80 mg/kg, Plasma Concentration (Css), three-day dosing in liquid diet, plasma): 670 ± 1000 nM; concentration at 3 days [9, 12]: 2340 ± 2130 nM; concentration at 3 days ([9]; 130 mg/kg, Plasma Concentration (Css), three-day dosing in liquid diet, plasma): 1930 ± 1580 nM; concentration at 3 days [9, 13]: 7650 ± 5570 nM; concentration at 3 days ([9]; 210 mg/kg, Plasma Concentration (Css), three-day dosing in liquid diet, plasma): 10900 ± 8440 nM; Brain Concentration (Css), 40 mg/kg ([9]; three-day dosing in liquid diet, 40 mg/kg, brain): no measurable brain concentrations
2 | c1ccc2cc(Nc3nc(-c4ccncc4)cs3)ncc2c1 [IND85, Isoquinolin-3-yl-(4-pyridin-4-yl-thiazol-2-yl)-amine] | higher | higher | 0.307 µM | 0.307 µM | higher | 3.03 ×10⁻⁶ cm/s | 4.44 ×10⁻⁶ cm/s | 1.5 | 18 min | 32% | 0.8 | 0.8 | 15 min | 15 min | 0.9 | 6% | 0.9 | 0.7 | 66% | 0.7 | half-life at 1 μM ([8]; human, human liver microsomes): 53 min; half-life at 1 μM ([8]; human, liver microsomes): 53 min; concentration at 3 days ([9]; 40 mg/kg, Brain Concentration (Css), three-day dosing in liquid diet, brain): 20 ± 30 nM; concentration at 3 days [9, 11]: 80 ± 30 nM; concentration at 3 days [9, 12]: 40 ± 30 nM; concentration at 3 days [9, 13]: 100 ± 70 nM; concentration at 3 days ([9]; Brain and plasma concentrations, 40, 80, 130 and 210 mg/kg/day for 3 days): ≤ 1000 nM
